Tests used:
Format in all cases: in vivo
[1] = system: Surinam grass (Brachiaria decumbens); experiment: Test B pre-/postemergence plant response
Summary of the method: (§1)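 Test compounds, formulated in a non-phytotoxic solvent mixture with surfactant, are applied to the soil surface (loam and sand blend) right after seeding, or sprayed over plants at the 1- to 4-leaf stage grown in peat moss/vermiculite medium. After 13 to 15 days under glasshouse conditions, each species is scored visually from 0 (no effect) to 100 (complete control) against controls.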

[2] = system: bermudagrass (Cynodon dactylon); experiment: Test B pre-/postemergence plant response
Summary of the method: as §1

[3] = system: downy bromegrass (Bromus tectorum); experiment: Test B pre-/postemergence plant response
Summary of the method: as §1

[4] = system: lambsquarters (Chenopodium album); experiment: Test B pre-/postemergence plant response
Summary of the method: as §1

[5] = system: pigweed (Amaranthus retroflexus); experiment: Test B pre-/postemergence plant response
Summary of the method: as §1

[6] = system: wheat (Triticum aestivum); experiment: Test B pre-/postemergence plant response
Summary of the method: as §1

[7] = system: woolly cupgrass (Eriochloa villosa); experiment: Test B pre-/postemergence plant response
Summary of the method: as §1

[8] = system: yellow nutsedge (Cyperus esculentus); experiment: Test B pre-/postemergence plant response
Summary of the method: as §1

[9] = system: barnyardgrass (Echinochloa crus-galli); experiment: Test B flooded paddy test
Summary of the method: (§2)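 Seedlings reaching 2 leaves are flooded 3 cm deep; test material is delivered to that water, which stays at the same depth. Plants remain in a greenhouse 13–15 days and are then scored by eye versus controls from 0 to 100.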

[10] = system: ducksalad (Heteranthera limosa); experiment: Test B flooded paddy test
Summary of the method: as §2

rice (Oryza sativa) = experiment: Test B flooded paddy test
Summary of the method: as §2

[11] = system: umbrella sedge (Cyperus difformis); experiment: Test B flooded paddy test
Summary of the method: as §2

[12] = 31 g ai/ha, postemergence, scale 0 to 100, 0 is no effect, 100 is complete control
[13] = 62 g ai/ha, postemergence, 0 is no effect, 100 is complete control, 13 to 15 days
[14] = Postemergence, 125 g ai/ha, visual rating after 13 to 15 days, scale 0 (no effect) to 100 (complete control)
[15] = Postemergence, 250 g ai/ha, scale 0 to 100 (0 no effect, 100 complete control)
[16] = Preemergence, 31 g ai/ha, scale 0 to 100 (0 no effect, 100 complete control)
[17] = Preemergence, 62 g ai/ha, scale 0 to 100 (0 no effect, 100 complete control)
[18] = Preemergence, 125 g ai/ha, scale 0 to 100, 0 no effect, 100 complete control
[19] = Preemergence, 250 g ai/ha, 0 to 100 scale
[20] = 250 g ai/ha, flooded paddy test, visual rating on 0 to 100 scale (0 no effect, 100 complete control) after 13 to 15 days
[21] = Flood (flooded paddy test), 62 g ai/ha, scale of 0 to 100 where 0 is no effect and 100 is complete control, 13 to 15 days

CCCn1c(-c2cccs2)ncc(C(=O)C2=C(O)CCCC2=O)c1=O [Compound 77]
Plant response rating, Surinam Grass [1, 12]: 65 | Surinam Grass plant response rating (0 to 100 scale) [1, 13]: 65 | Plant response rating, Surinam Grass [1, 14]: 75 | Plant response rating, Surinam Grass [1, 15]: 80 | Plant response rating, Surinam Grass [1, 16]: 0 | Plant response rating, Surinam Grass [1, 17]: 20 | Plant response rating, Surinam Grass [1, 18]: 75 | Surinam Grass plant response rating [1, 19]: 100 | Plant response rating, Bermudagrass [2, 12]: 90 | Bermudagrass plant response rating (0 to 100 scale) [2, 13]: 90 | Plant response rating, Bermudagrass [2, 14]: 95 | Plant response rating, Bermudagrass [2, 15]: 95 | Plant response rating, Bermudagrass [2, 16]: 55 | Plant response rating, Bermudagrass [2, 17]: 100 | Plant response rating, Bermudagrass [2, 18]: 100 | Bermudagrass plant response rating ([2]; Preemergence, 250 g ai/ha, 0 to 100 scale, 0 no effect, 100 complete control): 100 | Plant response rating, Bromegrass, Downy [3, 12]: 0 | Bromegrass, Downy plant response rating (0 to 100 scale) [3, 13]: 5 | Plant response rating, Bromegrass, Downy [3, 14]: 5 | Plant response rating, Bromegrass, Downy [3, 15]: 5 | Plant response rating, Bromegrass, Downy [3, 16]: 0 | Plant response rating, Bromegrass, Downy [3, 17]: 0 | Plant response rating, Bromegrass, Downy [3, 18]: 0 | Bromegrass, Downy plant response rating [3, 19]: 0 | Plant response rating, Lambsquarters [4, 12]: 95 | Lambsquarters plant response rating (0 to 100 scale) [4, 13]: 98 | Plant response rating, Lambsquarters [4, 14]: 98 | Plant response rating, Lambsquarters [4, 15]: 98 | Plant response rating, Lambsquarters [4, 16]: 98 | Plant response rating, Lambsquarters [4, 17]: 98 | Plant response rating, Lambsquarters [4, 18]: 100 | Lambsquarters plant response rating [4, 19]: 100 | Plant response rating, Pigweed [5, 12]: 98 | Pigweed plant response rating (0 to 100 scale) [5, 13]: 98 | Plant response rating, Pigweed [5, 14]: 100 | Plant response rating, Pigweed [5, 15]: 100 | Plant response rating, Pigweed [5, 16]: 100 | Plant response rating, Pigweed [5, 17]: 100 | Plant response rating, Pigweed [5, 18]: 100 | Pigweed plant response rating [5, 19]: 100 | Plant response rating, Wheat [6, 12]: 0 | Wheat plant response rating (0 to 100 scale) [6, 13]: 5 | Plant response rating, Wheat [6, 14]: 10 | Plant response rating, Wheat [6, 15]: 10 | Plant response rating, Wheat [6, 16]: 0 | Plant response rating, Wheat [6, 17]: 0 | Plant response rating, Wheat [6, 18]: 0 | Wheat plant response rating [6, 19]: 0 | Plant response rating, Cupgrass, Woolly [7, 12]: 20 | Cupgrass, Woolly plant response rating (0 to 100 scale) [7, 13]: 20 | Plant response rating, Cupgrass, Woolly [7, 14]: 35 | Plant response rating, Cupgrass, Woolly [7, 15]: 40 | Plant response rating, Cupgrass, Woolly [7, 16]: 0 | Plant response rating, Cupgrass, Woolly [7, 17]: 0 | Plant response rating, Cupgrass, Woolly [7, 18]: 0 | Cupgrass, Woolly plant response rating [7, 19]: 0 | Plant response rating, Nutsedge, Yellow [8, 12]: 45 | Nutsedge, Yellow plant response rating (0 to 100 scale) [8, 13]: 60 | Plant response rating, Nutsedge, Yellow [8, 14]: 70 | Plant response rating, Nutsedge, Yellow [8, 15]: 80 | Plant response rating, Nutsedge, Yellow [8, 16]: 75 | Plant response rating, Nutsedge, Yellow [8, 17]: 80 | Plant response rating, Nutsedge, Yellow [8, 18]: 90 | Nutsedge, Yellow plant response rating [8, 19]: 90 | Plant response rating, Flood, Barnyardgrass [9, 20]: 65 | Plant response rating, Barnyardgrass [9, 21]: 30 | Plant response rating, Flood, Ducksalad [10, 20]: 40 | Plant response rating, Ducksalad [10, 21]: 30 | Plant response rating, Flood, Rice (rice (Oryza sativa); [20]): 15 | Plant response rating, Rice (rice (Oryza sativa); [21]): 0 | Plant response rating, Flood, Sedge, Umbrella [11, 20]: 40 | Plant response rating, Sedge, Umbrella [11, 21]: 40

From patent US8952024B2, “Herbicidal pyrimidone derivatives” (E I du Pont de Nemours and Company, priority 2009, dated 2015)
